Our source for the fold induction values is US10975063B2, “Compound, and production method thereof, and methods of treatment using the compound” (ABIVAX, priority 2009, dated 2021).

The experiment relates to LMNA aberrant splicing (MutLMNA-luc cell line). Description: Luciferase assay for repression of LMNA aberrant splicing in stable 293 MutLMNA-luc cell line (293FLP LMNA LUC cells #8). In kind it is cell-based. The conditions noted are these: 48 hours, compared to control untreated MutLMNA-luc cell line, read-out: Increase of luciferase activity. The source says:
Advantage has been taken of the luciferase system. The luciferase assay is an extremely sensitive and rapid assay. Linear results are seen over at least eight orders of magnitude of enzyme concentration. Moreover, the luciferase assay is well suited for high-throughput applications. To conduct a Mid-throughput screening (MTS) for compounds repressing LMNA aberrant splicing, we have constructed a plasmid in which exon 11, intron 11 and part of exon 12 of LMNA gene were fused with luciferase cDNA (FIG. 2). Both wild type (WtLMNA-luc)(SEQ ID NO: 1) and mutant (MutLMNA-luc)(SEQ ID NO: 2) substrate harbouring exon 11 mutation have been constructed. In these constructs we have generated a single initiation codon in exon 11 such as correct splicing will lead to luciferase expression, while aberrant splicing will skip the initiation codon and thereby prevent luciferase expression. After transfection in HeLa cells, Luciferase assays (FIG. 2B) and RT-PCR (FIG. 2C) indicate that WtLMNA-luc produces predominantly wild type splicing and large amount of luciferase activity, whereas MutLMNA-luc recapitulate the aberrant splicing profile with reduced luciferase expression (FIGS. 2 B and C, compare Wt and Mut). In order to use this system in MTS, we have generated a stable 293 cell lines containing a single integrated copy of luciferase reporter containing LMNA mutation (MutLMNA-luc cell line) using the flp system from INVITROGEN. This system allows us to perform a MTS for compounds able to enhance luciferase activity.
LMNA sequences (1278 bp of exon 11, intron 11 and 46 bp of […]) were PCR-amplified from either control or patient's cells genomic DNA with specific primer PCR fragments were purified with Concert Rapid PCR purification system (Invitrogen) and subcloned at the BamHI and EcoRI restriction sites of the pSppβm3 S1 plasmid containing the βGlobin cassette (Labourier et al., 1999—Recognition of exonic splicing enhancer sequences by the Drosophila splicing repressor RSF1. Nucleic Acids Res. 27, 2377-2386) to give the βGlo3S1LMNAwt and βGlo3S1LMNAmut constructs. The chimeric (3Glo-LMNA sequences were then inserted into the pcDNA3.1D/V5-His-TOPO vector (Invitrogen) to be used in transfection and in vitro splicing experiments. A single initiation codon ATG was kept in exon 11 of LMNA and LMNA sequences described above were fused at their 3′ end to Fyrefly luciferase cDNA (LMNAlucWT) in order that removal of intron 11 generates a transcript that encode a fusion protein harbouring luciferase activity, whereas usage of the cryptic splice site of mutated exon 11 (LMNAlucMut) will remove the initiation codon preventing luciferase expression. Both sequences were cloned in pcDNA3 Flp-In vector (Invitrogen).
A stable 293 cell line containing a single copy of LMNAlucMut minigene was obtained using the Flp-In system from (Invitrogen) according to manufacture procedure. Several clones were obtained and only one clone was used to screen the whole chemical library (293FLP LMNA LUC cells #8).
In a 96 Well Plate sterile, V-shape one put […] of drug compounds at 50 mM and then add 49.5 μl of 10% DMSO.
One pipets […] of drug at 500 μM and adds 200 μL of DMEM+Hygromycin B. At this stage the concentration of drug compound is 10 μM. One shares out 100 μl in a 96 Well Microplate sterile, flat bottom (further called luciferase plate) and 50 μl in other one (further called toxicity plate).
One washes 293FLP LMNA LUC cells once with D-PBS then adds 1 ml trypsin EDTA. Incubation at 37° C. for 2-3 minutes is proceeded. Then one adds 9 ml DMEM (with 10% FCS, P/S).
Cell concentration is brought at 10^5 cells per ml with DMEM+Hygromycin B to have 10^4 cells per 100 μl.
100 μl of suspension cells is added (at 10^4 cells per 100 μl) so final concentration of compounds is […].
Medium of the wells is gently removed then washed once by adding slowly 150 μl of D-PBS 1×. D-PBS is removed. 40 μl of PLB 1× is added and incubated at RT for 30 minutes. […]

Regarding `N#Cc1ccc(Nc2cnc3ccccc3n2)nc1` [Compound 137, 6-(quinoxalin-2-ylamino)pyridine-3-carbonitrile], the fold induction at 5 µM worked out at 4.64.
Consider `Cc1cc(OC(F)(F)F)ccc1Nc1cnc2ccccc2n1` [Compound 125, N-[2-methyl-4-(trifluoromethoxy)phenyl]quinoxalin-2-amine], for which the fold induction at 5 µM was found to be 2.59.
Regarding `c1ccc(Nc2cnc3ccccc3c2)nc1` [Compound 9, Pyridin-2-yl-quinolin-3-yl-amine], the fold induction at 5 µM was 2.47.
For `COC(=O)c1ccc(Nc2nc3ccccc3cc2C)nc1` [Compound 61, methyl 6-[(3-methylquinolin-2-yl)amino]pyridine-3-carboxylate] the value was 2.04; for `Cc1ccnc(Nc2ccc3ccccc3n2)c1` [Compound 3, (4-Methyl-pyridin-2-yl)-quinolin-2-yl-amine], 4.54.
As for `Cc1ccc(Nc2cnc3ccccc3c2)nc1` [Compound 13, (5-Methyl-pyridin-2-yl)-quinolin-3-yl-amine], the fold induction at 5 µM amounted to 3.46.
For the compound `c1ccc2nc(Nc3cnccn3)ccc2c1` [Compound 113, N-(pyrazin-2-yl)quinolin-2-amine], the fold induction at 5 µM came to 2.28.
As for `c1ccc(Nc2cnc3ccccc3n2)nc1` [Compound 135, N-(pyridin-2-yl)quinoxalin-2-amine], the fold induction at 5 µM is 4.58.
As to `Cc1cccc(Nc2ccc3ncccc3c2)n1` [Compound 16, (6-Methyl-pyridin-2-yl)-quinolin-6-yl-amine], the fold induction at 5 µM was 4.56.
For `Cc1ccc(Nc2ccc3ncccc3c2)nc1` [Compound 107, N-(5-methylpyridin-2-yl)quinolin-6-amine], the fold induction at 5 µM was 2.2.
With `Cc1cccc(Nc2ccc3cccc(Cl)c3n2)n1` [Compound 18, 8-chloro-N-(6-methylpyridin-2-yl)quinolin-2-amine], the fold induction at 5 µM turned out to be 2.85.
As to `Cc1cccc(Nc2ccc3cc(Cl)ccc3n2)n1` [Compound 26, 6-chloro-N-(6-methylpyridin-2-yl)quinolin-2-amine], the fold induction at 5 µM is 6.2.
`O=C(O)c1ccnc(Nc2ccc3ccccc3n2)c1` [Compound 2, 2-(Quinolin-2-ylamino)-isonicotinic acid]: the fold induction at 5 µM stood at 3.77.
Consider `O=[N+]([O-])c1ccc(Nc2ccc3ccccc3n2)nc1` [Compound 39, N-(5-nitropyridin-2-yl)quinolin-2-amine], for which the fold induction at 5 µM amounted to 4.29.
With `Cc1ccnc(Nc2ccc3c(N(C)C)ccnc3c2)c1` [Compound 147, 4-N,4-N-dimethyl-7-N-(4-methylpyridin-2-yl)quinoline-4,7-diamine], the fold induction at 5 µM is 2.94.
On to `O=C(O)c1ccnc(Nc2ccc3cccc(Cl)c3n2)c1` [Compound 5, 2-(8-Chloro-quinolin-2-ylamino)-isonicotinic acid], for which the fold induction at 5 µM is 2.02.
`Fc1ccc(Nc2ccc3ccccc3n2)nc1` [Compound 41, N-(5-fluoropyridin-2-yl)quinolin-2-amine]: the fold induction at 5 µM was 3.32.
As for `COc1cccnc1Nc1ccc2ncccc2c1` [Compound 108, N-(3-methoxypyridin-2-yl)quinolin-6-amine], the fold induction at 5 µM stood at 4.57.
Next, `c1ccc(Oc2ccc(Nc3ccc4ccccc4n3)cc2)cc1` [Compound 102, N-(4-phenoxyphenyl)quinolin-2-amine]: 2.06.
For `N#Cc1ccnc(Nc2ccc3ccccc3n2)c1` [Compound 33, 2-(quinolin-2-ylamino)isonicotinonitrile], the fold induction at 5 µM came to 2.14.
Next, `c1ccc(Nc2ccc3ccccc3n2)nc1` [Compound 4, Pyridin-2-yl-quinolin-2-yl-amine]: 4.43; `COC(=O)c1ccc(Nc2ccc3ccccc3n2)nc1` [Compound 59, methyl 6-(quinolin-2-ylamino)nicotinate]: 2.49.
As for `FC(F)(F)Oc1cccc(Nc2ccc3ccccc3n2)c1` [Compound 83, N-[3-(trifluoromethoxy)phenyl]quinolin-2-amine], the fold induction at 5 µM worked out at 2.74.
Take `COc1ccc(Nc2cnc3ccccc3c2)cc1` [Compound 123, N-(4-methoxyphenyl)quinolin-3-amine]: the fold induction at 5 µM is 2.94.
Next, `Cc1ccc(Nc2ccc3ccccc3n2)nc1` [Compound 32, N-(5-methylpyridin-2-yl)quinolin-2-amine]: 2.96; `N#Cc1ccc(Nc2ccc3ccccc3n2)nc1` [Compound 7, 6-(Quinolin-2-ylamino)-nicotinonitrile]: 3.33; `Cc1ccc(Nc2ccc3cccc(Cl)c3n2)nc1` [Compound 36, 8-chloro-N-(5-methylpyridin-2-yl)quinolin-2-amine]: 3.06.
For `FC(F)(F)c1cccc(Nc2ccc3ccccc3n2)n1` [Compound 42, N-(6-(trifluoromethyl)pyridin-2-yl)quinolin-2-amine], the fold induction at 5 µM was 3.87.
On to `c1cnc(Nc2cnc3ccccc3n2)nc1` [Compound 142, N-(pyrimidin-2-yl)quinoxalin-2-amine], for which the fold induction at 5 µM stood at 4.47.
Next, `Cc1cccnc1Nc1ccc2cccc(Cl)c2n1` [Compound 35, 8-chloro-N-(3-methylpyridin-2-yl)quinolin-2-amine]: 2.74.
For the compound `c1ccc2nc(Nc3ccncc3)ccc2c1` [Compound 120, N-(pyridin-4-yl)quinolin-2-amine], the fold induction at 5 µM was 2.38.
Next, `FC(F)(F)c1ccc(Nc2ccc3ncccc3c2)nc1` [Compound 15, Quinolin-6-yl-(5-trifluoromethyl-pyridin-2-yl)-amine]: 2.17.
Next, `COc1cccnc1Nc1cnc2ccccc2c1` [Compound 10, (3-Methoxy-pyridin-2-yl)-quinolin-3-yl-amine]: 2.01; `COc1ccnc2cc(Nc3ccccn3)ccc12` [Compound 145, 4-methoxy-N-(pyridin-2-yl)quinolin-7-amine]: 3.87; `Cc1cccc(Nc2ccc3ccccc3n2)n1` [Compound 17, N-(6-methylpyridin-2-yl)quinolin-2-amine]: 3.66.
For the compound `FC(F)(F)Oc1ccc(Nc2ccc3ccccc3n2)cc1` [Compound 8, Quinolin-2-yl-(4-trifluoromethoxy-phenyl)-amine], the fold induction at 5 µM was determined as 3.35.
Regarding `FC(F)(F)c1ccc(Nc2ccc3ccccc3n2)nc1` [Compound 34, N-(5-(trifluoromethyl)pyridin-2-yl)quinolin-2-amine], the fold induction at 5 µM turned out to be 4.18.
For `COc1cccnc1Nc1ccc2ccccc2n1` [Compound 38, N-(3-methoxypyridin-2-yl)quinolin-2-amine] the value was 5.81; for `Cc1cccc(Nc2cnc3ccccc3n2)n1` [Compound 138, N-(6-methylpyridin-2-yl)quinoxalin-2-amine], 8.22; for `Cc1cccc(Nc2cnc3ccccc3c2)n1` [Compound 105, N-(6-methylpyridin-2-yl)quinolin-3-amine], 3.25.
`COc1ccnc2cc(Nc3cc(C)ccn3)ccc12` [Compound 146, 4-methoxy-N-(4-methylpyridin-2-yl)quinolin-7-amine]: the fold induction at 5 µM came out at 4.18.
Consider `Cc1ccnc(Nc2ccc3cc(Cl)ccc3n2)c1` [Compound 25, 6-chloro-N-(4-methylpyridin-2-yl)quinolin-2-amine], for which the fold induction at 5 µM came to 3.49.
